Results published in article PMC11901381 (Future Medicinal Chemistry, 2025).

Assays:
[1] = test system: L. donovani strain 9515 promastigotes; assay: Antipromastigote resazurin assay; assay type: cell-based, Leishmania donovani; details: for IC50: Leishmania donovani, read-out: Antipromastigote activity IC50; for AG (activity gain): IC50 (1)/IC50 (compd.), L. donovani promastigotes; for SI1: SI1 = IC50 Vero/IC50 promastigote, L. donovani
[2] = test system: T. brucei brucei strain GUTat3.1; assay: Antitrypanosomal assay; assay type: cell-based, Trypanosoma brucei brucei; details: for IC50: Trypanosoma brucei, read-out: Antitrypomastigote activity IC50 ± SD Tbb GuTat3.1
[3] = Solubility observed during sample preparation and screening; assay type: physicochemical; details: for Solubility in 100% DMSO: 100% dimethyl sulfoxide used for sample preparation
[4] = Animal cytotoxicity, CCK-8 assay; assay type: cell-based, bovine; details: bovine, MDBK (Madin-Darby bovine kidney) cells
[5] = test system: T. brucei rhodesiense strain IL1501; assay: Antitrypanosomal assay; assay type: cell-based, Trypanosoma brucei rhodesiense; details: IC50 of MDBK/IC50 of trypanosome
General = assay type: cell-based; details: African green monkey, Vero cells (monkey kidney epithelial cells)
[6] = test system: T. brucei gambiense strain IL1922; assay: Antitrypanosomal assay; assay type: cell-based, Trypanosoma brucei gambiense; details: IC50 of MDBK/IC50 of trypanosome
[7] = test system: L. major strain NIH S promastigotes; assay: Antipromastigote resazurin assay; assay type: cell-based, Leishmania major; details: for IC50: Leishmania major, read-out: Antipromastigote activity IC50; for AG (activity gain): IC50 (1)/IC50 (compd.), L. major promastigotes; for SI4: SI4 = IC50 Vero/IC50 promastigote, L. major
[8] = Host cell toxicity, resazurin assay; assay type: cell-based; details: human
[9] = test system: L. major strain NIH S intramacrophage amastigotes; assay: Intramacrophage antileishmanial resazurin assay; assay type: cell-based, Leishmania major; details: for SI5: SI5 = IC50 Vero/static IC50 amastigote; for SI5 / SI6 / SpI3 / SpI4: L. major; for SI6: SI6 = IC50 Vero/cidal IC50 amastigote; for SpI3: SpI3 = IC50 promastigote/static IC50 amastigote; for SpI4: SpI4 = IC50 promastigote/cidal IC50 amastigote; for Static anti-amastigote activity IC50: L. major NIH S amastigotes in THP-1 macrophages, 24 hours after lysis
[10] = test system: L. donovani strain 9515 intramacrophage amastigotes; assay: Intramacrophage antileishmanial resazurin assay; assay type: cell-based, Leishmania donovani; details: for SpI1: SpI1 = IC50 promastigote/static IC50 amastigote; for SpI1 / SpI2 / SI2 / SI3: L. donovani; for SpI2: SpI2 = IC50 promastigote/cidal IC50 amastigote; for SI2: SI2 = IC50 Vero/static IC50 amastigote; for SI3: SI3 = IC50 Vero/cidal IC50 amastigote; for Static anti-amastigote activity IC50: L. donovani 9515 amastigotes in THP-1 macrophages, 24 hours after lysis
[11] = test system: T. congolense strain IL3000; assay: Antitrypanosomal assay; assay type: cell-based, Trypanosoma congolense; details: IC50 of MDBK/IC50 of trypanosome

SMILES	IC50 (General) [µM]	IC50 [1] [µM]	IC50 [2] [µM]	IC50 [4] [µM]	IC50 [7] [µM]	IC50 [8] [µM]	SI5 [9]	SI6 [9]	SpI3 [9]	SpI4 [9]	other results
CC[C@H]1CN2CCc3cc(OC)c(OC)cc3[C@@H]2C[C@@H]1C[C@H]1NCCc2cc(OC)c(OC)cc21 [Em, emetine, reference compound]	0.09 ± 0.009										
C[C@@H]1[C@H](O)[C@@H](C)/C=C/C=C/C=C/C=C/C=C/C=C/C=C/[C@H](O[C@@H]2O[C@H](C)[C@@H](O)[C@H](N)[C@@H]2O)C[C@@H]2O[C@](O)(C[C@@H](O)C[C@@H](O)[C@H](O)CC[C@@H](O)C[C@@H](O)CC(=O)O[C@H]1C)C[C@H](O)[C@H]2C(=O)O [AMB, amphotericin B, reference compound]		0.02 ± 0.009							0.1	0.2	SpI1 [10]: 0.40; SpI2 [10]: 0.04
O=C1NC(=S)S/C1=C\c1cn(Cc2cccc(Cl)c2)c2ccc([N+](=O)[O-])cc12 [3f, (Z)-5-{[1-(3-Chlorobenzyl)-5-nitro-1 H-indol-3-yl]methylene}-2-thioxothiazolidin-4-one]	22.2 ± 1.65	19.1 ± 3.7	> 61		17.7 ± 0.9	> 100	5	8	4	7	SI2 [10]: 12; SI3 [10]: 11; SpI1 [10]: 10; SpI2 [10]: 10; AG (activity gain) [1]: 2.6; SI1 [1]: 1; Solubility in 100% DMSO [3]: poor solubility; AG (activity gain) [7]: 2.6; SI4 [7]: 1
O=C1NC(=S)S/C1=C\c1cn(Cc2ccccc2)c2ccc([N+](=O)[O-])cc12 [3c, (Z)-5-[(1-Benzyl-5-nitro-1 H-indol-3-yl)methylene]-2-thioxothiazolidin-4-one]	18.8 ± 3.22	> 100	> 73	99.13 ± 0.96	> 100	> 100	35	37	189	196	SI2 [10]: 6; SI3 [10]: 6; SpI1 [10]: 34; SpI2 [10]: 33; SI Tc IL3000 [11]: 5
O=Cc1c[nH]c2ccc([N+](=O)[O-])cc12 [2a, 5-Nitro-1H-indole-3-carbaldehyde]	> 100	> 100	> 131	> 526	> 100						
C#CCn1cc(C=O)c2cc([N+](=O)[O-])ccc21 [2b, 5-Nitro-1-(prop-2-yn-1-yl)-1 H-indole-3-carbaldehyde]	> 100	> 100	> 110	> 438	> 100	91.1 ± 12.6	41	41	41	42	
Cc1ccc(Cn2cc(C=O)c3cc([N+](=O)[O-])ccc32)cc1 [2d, 1-(4-Methylbenzyl)-5-nitro-1 H-indole-3-carbaldehyde]	96.9 ± 5.35		> 85			> 100					AG (activity gain) [1]: 61; SI1 [1]: 117; AG (activity gain) [7]: 32.3; SI4 [7]: 68
O=Cc1cn(Cc2cccc(Cl)c2)c2ccc([N+](=O)[O-])cc12 [2f, 1-(3-Chlorobenzyl)-5-nitro-1 H-indole-3-carbaldehyde]	99.91 ± 0.13		> 79			> 100	10	7		1	AG (activity gain) [7]: 5.3; SI4 [7]: 11
O=Cc1cn(Cc2ccccc2)c2ccc([N+](=O)[O-])cc12 [2c, 1-Benzyl-5-nitro-1 H-indole-3-carbaldehyde]	> 100		> 89	> 357		> 100					SI2 [10]: 28; SI3 [10]: 28; SpI1 [10]: 28; SpI2 [10]: 28
O=[N+]([O-])c1ccc2[nH]ccc2c1 [compound 1, 5-nitroindole]	79.5 ± 14.9	50.3 ± 1.36	> 154		45.8 ± 5.47	> 100					Static anti-amastigote activity IC50 [10]: inactive; AG (activity gain) [1]: 1; SI1 [1]: 2; Static anti-amastigote activity IC50 [9]: inactive; AG (activity gain) [7]: 1; SI4 [7]: 2
Cc1ccc(C(=O)Nc2ccc(S(=O)(=O)O)c3cc(S(=O)(=O)O)cc(S(=O)(=O)O)c23)cc1NC(=O)c1cccc(NC(=O)Nc2cccc(C(=O)Nc3cc(C(=O)Nc4ccc(S(=O)(=O)O)c5cc(S(=O)(=O)O)cc(S(=O)(=O)O)c45)ccc3C)c2)c1 [Suramin, suramin, reference compound]			0.07 ± 0.02	> 70							

Now from value to compound, other results behind:

IC50 (General) [µM]	SMILES	IC50 [1] [µM]	IC50 [2] [µM]	IC50 [4] [µM]	IC50 [7] [µM]	IC50 [8] [µM]	SI5 [9]	SI6 [9]	SpI3 [9]	SpI4 [9]	other results
> 100	O=C1CSC(=S)N1/N=C/c1cn(Cc2ccc(F)cc2)c2ccc([N+](=O)[O-])cc12 [4e, (E)-3-({[1-(4-Fluorobenzyl)-5-nitro-1 H-indol-3-yl]methylene}amino)-2-thioxothiazolidin-4-one]	> 100	55.3 ± 4.84	22.4 ± 5.37	> 100						SI Tbb GuTat3.1 ([2]; IC50 of MDBK/IC50 of trypanosome): 0; Solubility in aqueous screening medium [3]: poor solubility; SI Tbr IL1501 [5]: 0; SI Tbg IL1922 [6]: 0
> 100	O=C1CSC(=S)N1/N=C/c1cn(Cc2ccccc2)c2ccc([N+](=O)[O-])cc12 [4c, (E)-3-{[(1-Benzyl-5-nitro-1 H-indol-3-yl)methylene]amino}-2-thioxothiazolidin-4-one]	> 100	> 60		> 100	> 100	38	41	38	41	
98.2 ± 1.62	Cc1ccc(Cn2cc(/C=C3\SC(=S)NC3=O)c3cc([N+](=O)[O-])ccc32)cc1 [3d, (Z)-5-{[1-(4-Methylbenzyl)-5-nitro-1 H-indol-3-yl]methylene}-2-thioxothiazolidin-4-one]	87.4 ± 17.8	> 70		> 100	> 100	78		79	107	SI2 [10]: 19; SI3 [10]: 17; SpI1 [10]: 17; SpI2 [10]: 15; AG (activity gain) [1]: 0.6; SI1 [1]: 1
> 100	C#CCn1cc(/C=N/N2C(=O)CSC2=S)c2cc([N+](=O)[O-])ccc21 [4b, (E)-3-({[5-Nitro-1-(prop-2-yn-1-yl)-1 H-indol-3-yl]methylene}amino)-2-thioxothiazolidin-4-one]	> 100	> 59		> 100	> 100	11	12	11	12	Solubility in aqueous screening medium [3]: poor solubility
> 100	O=C1CSC(=S)N1/N=C/c1c[nH]c2ccc([N+](=O)[O-])cc12 [4a, (E)-3-{[(5-Nitro-1 H-indol-3-yl)methylene]amino}-2-thioxothiazolidin-4-one]	> 100	> 61	66.8 ± 9.55	> 100						
58.8 ± 13.2	O=C1CSC(=S)N1/N=C/c1cn(Cc2cccc(Cl)c2)c2ccc([N+](=O)[O-])cc12 [4f, (E)-3-({[1-(3-Chlorobenzyl)-5-nitro-1 H-indol-3-yl]methylene}amino)-2-thioxothiazolidin-4-one]	> 100	> 56		> 100						
> 100	Cc1ccc(Cn2cc(/C=N/N3C(=O)CSC3=S)c3cc([N+](=O)[O-])ccc32)cc1 [4d, (E)-3-({[1-(4-Methylbenzyl)-5-nitro-1H -indol-3-yl]methylene}amino)-2-thioxothiazolidin-4-one]	> 100	> 58		70.9 ± 14.3						Static anti-amastigote activity IC50 [10]: inactive; Solubility in aqueous screening medium [3]: poor solubility; Static anti-amastigote activity IC50 [9]: inactive; AG (activity gain) [7]: 0.7; SI4 [7]: 1
17.4 ± 1.33	O=C1NC(=S)S/C1=C\c1cn(Cc2ccc(F)cc2)c2ccc([N+](=O)[O-])cc12 [3e, (Z)-5-{[1-(4-Fluorobenzyl)-5-nitro-1H -indol-3-yl]methylene}-2-thioxothiazolidin-4-one]	> 100	> 63	17 ± 2.65	> 100						Solubility in 100% DMSO [3]: poor solubility; SI Tc IL3000 [11]: 7
